How the values were obtained:
[1] = test system: 143B cells; assay: CellTiter-Glo viability, 143B; assay type: cell-based, human; conditions: 72 hr
Method: (§1) FIGS. 7A-7C depict that CMGi induce DNA damage and selectively reduce tumor cell viability. (FIG. 7A) Cell Titer Glo viability assays for CA1/CMGi sensitivity were performed on 143B (OS), Psn1 (PDAC), and H460 (NSCLC) tumor lines. Novobiocin was tested against 143B cells as a comparison. (FIG. 7B) Immunoblot of chromatin-bound proteins (as indicated) from asynchronous 143B OS cells treated with 10 μM novobiocin or increasing concentrations of CA1 for 24 hrs. (FIG. 7C) Immunoblot of total proteins from Psn1, H460, 143B, and HaCaT cells treated with 5 μM CA1/CMGi or DMSO/novobiocin controls, or HaCaT treated with 15 μM CA1/CMGi (right side). The Psn1 and H460 cells were treated for 24 hrs, and 143B and HaCaT cells were treated for 48 hrs. Probing of blots was done with anti-gamma-H2AX (DNA damage signal) or anti-cleaved-Parp (apoptotic indicator). Anti-GAPDH is a loading control.
(§2) Cell viability determinations were performed using CellTiter-Glo Assays (Promega; cat #G7572). Cells were seeded in 96-well plates at a density of ~3×10^3 cells/well and treated with drugs for 72 hr, after which the cells were processed for viability using CellTiter-Glo reagent according to the instructions of the manufacturer. Each drug concentration test was performed using four replicates, and results averaged and plotted on graphs, +/−1 s.d.

[2] = molecular target: HPV18-E1 helicase (human papillomavirus 18, UniProt P06789); assay: HPV18-E1 helicase assay; assay type: biochemical, human papilloma virus 18; conditions: requires higher CA1 concentrations than CMG
Method: The HPV16 or HPV18 E1 helicase domain (16E1HD or 18E1HD) was expressed and purified from Sf9 cells by infecting the cells with 2Flag-GST-E1 baculovirus. The cleared cell lysates were prepared as for large T antigen and incubated with Glutathione beads at 4° C. overnight. The bound E1 proteins were eluted from beads with 20 mM reduced glutathione in Q buffer, applied to a Q Sepharose Fast Flow column, and eluted with 0.75 M potassium acetate in Q buffer. Purified E1 proteins were obtained by further incubation with Flag-M2 beads and elution with Flag peptides.
Helicase fork-unwinding assays were performed at 37° C. for 1 hr in 20 μL reaction volumes using 2-4 μl of hCMG (~15-30 fmol), in a buffer consisting of 25 mM Hepes-NaOH (pH 7.5), 5 mM NaCl, 0.5 mM ATP, 10 mM magnesium acetate, 1 mM DTT, 0.1 mg/ml bovine serum albumin (BSA), and ~10 fmol of radiolabeled DNA forks (20). Reactions were terminated with 4 μl of 6× stop solution [50 mM EDTA (pH 8.0), 40% (vol/vol) glycerol, 2% (wt/vol) SDS, and 0.3% bromophenol blue], loaded onto 10% (wt/vol) polyacrylamide gels, resolved at 150 volts in 1×-TBE buffer (89 mM Tris base, 89 mM boric acid, and 2 mM EDTA), dried on filter paper, and analyzed by autoradiography and quantified by PhosphorImager assessment. […]

[3] = test system: Psn1, H460 and 143B tumor lines; assay: CellTiter-Glo viability, tumor lines; assay type: cell-based, human
Method: Human keratinocytes (HaCaT; RRID:CVCL_0038), 143B cells (osteosarcoma; RRID:CVCL_2270), and HEK-293T (RRID:CVCL_0063) cells were maintained in Dulbecco's Modified Eagle's Medium (DMEM) supplemented with 10% fetal bovine serum (FBS; Peak Serum, PS-FB-2). Human Psn1 (pancreatic ductal adenocarcinoma; RRID:CVCL_1644) and H460 (non-small cell lung carcinoma; RRID:CVCL_0459) cells were cultured in RPMI-1640 medium supplemented with 10% FBS. HaCaT cells were synchronized in Go using serum starvation for 48 hr and released into the cell cycle by addition of DMEM with 10% FBS (51). Novobiocin (cat #46531) and Courmermycin-A1 (cat #C9270) were obtained from Sigma. Etoposide (cat #S1225) and AT7519 (cat #S1524) were obtained from SelleckChem. All stock solutions of inhibitors were stored at −20° C. as 10 mM suspensions in DMSO.
as §2

[4] = test system: hCMG complexes immunoprecipitated from HaCaT cells; assay: Co-immunoprecipitation, HaCaT nuclear extract; assay type: biochemical, human; conditions: 15 μM, 30 min
Method: (§3) Nuclear extracts were prepared from synchronized HaCaT cells after releasing into S-phase (at 20 hrs post release) or HEK-293T cells expressing stable Flag-Mcm2 protein (human). Cells from one 10 cm dish were resuspended in […] of Buffer A (10 mM Hepes-KOH pH 7.5, 10 mM KCl, 1.5 mM MgCl2, 0.34 M sucrose, 10% glycerol, protease inhibitors, and 0.1% Triton-X-100) and incubated on ice for 5 min. The nuclear pellet was obtained by centrifugation at 4,000 rpm at 4° C. for 5 min and washed with the Buffer A without Triton X-100. The nuclear extract was obtained by resuspending the nuclear pellet in […] of Buffer A containing 420 mM potassium acetate and 0.01% Triton X-100, and incubating at 4° C. for 1 hr. The final concentration of potassium acetate in nuclear extracts was adjusted to 200 mM for the co-immunoprecipitation assays. For the co-immunoprecipitation assays, […] of indicated antibody [anti-Mcm2, anti-Psf1, or rabbit IgG (Sigma)], or 30 mL of mouse IgG or anti-Flag agarose beads (Sigma), was incubated with […] of nuclear extract at 4° C. for 4 hrs. Protein A/G agarose beads (30 mL, Santa Cruz, sc-2003) were added and incubated for 1 hr with antibodies. Agarose beads were washed once in Buffer A containing 200 mM potassium acetate and 0.01% Triton X-100 and incubated with 15 μM CA1 or DMSO (same concentration as in CA1 sample) for 30 min. Beads were washed in the same buffer and analyzed by immunoblotting with indicated antibodies.

[5] = test system: Flag-Mcm2 hCMG and replisome complexes from HEK-293T cells; assay: Co-immunoprecipitation, HEK-293T cells expressing Flag-Mcm2; assay type: biochemical, human; conditions: 15 μM, 30 min; Flag IP
Method: as §3, with “Agarose beads were washed once in Buffer A containing 200 mM potassium acetate and 0.01% Triton X-100 and incubated with 15 μM CA1 or DMSO (same concentration as in CA1 sample) for 30 min.” left out

[6] = test system: HaCaT cells; assay: DNA damage (gamma-H2AX) and apoptosis (cleaved Parp) immunoblot, HaCaT; assay type: cell-based, human; conditions: 15 μM, 48 hrs
Method: as §1

Sequence of HPV18-E1 helicase (P06789 305-657): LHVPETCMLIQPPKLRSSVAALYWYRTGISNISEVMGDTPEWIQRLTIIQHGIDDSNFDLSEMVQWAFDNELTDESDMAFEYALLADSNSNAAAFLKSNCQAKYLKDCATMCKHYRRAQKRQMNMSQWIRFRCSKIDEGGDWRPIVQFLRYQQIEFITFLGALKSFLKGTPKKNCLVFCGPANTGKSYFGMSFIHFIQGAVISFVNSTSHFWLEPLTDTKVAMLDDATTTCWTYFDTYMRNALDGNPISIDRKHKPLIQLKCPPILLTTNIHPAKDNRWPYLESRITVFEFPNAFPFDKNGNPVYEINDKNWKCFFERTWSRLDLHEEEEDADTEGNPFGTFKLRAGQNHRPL

| SMILES | effect on tumor cell viability [1] | HPV18-E1 helicase sensitivity [2] | IC50 ([3]; Homo sapiens, 72 hr, all three tumor lines (Psn1, H460, 143B), read-out: tumor line viability IC50 estimates) [nM] | sensitivity of tumor lines relative to HaCaT ([3]; Psn1, H460, 143B vs HaCaT, 4320 min) | Cdc45 association with MCMs ([4]; Mcm2 IP) | MCM complexes ([4]; Mcm2 IP) | Mcm2 and Mcm6 interactions with GINS ([4]; Psf1 IP) | Psf1-3 interactions ([4]; Psf1 IP) | MCM interactions [5] | Psf1, Cdc45 and Ctf4 association with Flag-Mcm2 [5] | gamma-H2AX and Parp cleavage [6] |
| --- | --- | --- | --- | --- | --- | --- | --- | --- | --- | --- | --- |
| CO[C@@H]1[C@@H](OC(N)=O)[C@@H](O)[C@H](Oc2ccc3c(O)c(NC(=O)c4ccc(O)c(CC=C(C)C)c4)c(=O)oc3c2C)OC1(C)C [novobiocin] | little effect until higher concentrations are tested | – | – | – | – | – | – | – | – | – | – |
| CO[C@@H]1[C@@H](OC(=O)c2ccc(C)[nH]2)[C@@H](O)[C@H](Oc2ccc3c(O)c(NC(=O)c4c[nH]c(C(=O)Nc5c(O)c6ccc(O[C@@H]7OC(C)(C)[C@H](OC)[C@@H](OC(=O)c8ccc(C)[nH]8)[C@H]7O)c(C)c6oc5=O)c4C)c(=O)oc3c2C)OC1(C)C [CA1] | – | sensitive to CA1, but require higher CA1 concentrations | 1000 to 4000 | 4-10 times | causes Cdc45 to dissociate from MCMs | does not disrupt MCM complexes | abolished | did not disrupt Psf1-3 interactions | does not disrupt MCM interactions | displaces Psf1, Cdc45, and Ctf4 from Flag-Mcm2 | HaCaT cells will eventually incur DNA damage and Parp cleavage |
